Assays:
[1] = Chemical stability of conjugates in neutral, acidic and basic solutions; assay type: physicochemical
Description: Exemplary expérimental results showing the efficacy of certain embodiments of the combinations of the invention are set forth in the drawings. Stability studies were performed on thioester conjugates of N-acetylcysteine and salicylate, diflunisal or dexibuprofen, at neutral (pH 7), acidic, or basic (9) pH in phosphate-buffered saline (PBS). […] Diflunisal-NAC conjugates were tested for 3 or 24 hours under the same neutral, acidic and basic conditions, at room température or 4° C., and in PBS or mixture of water and méthanol.

[2] = Cleavage by rat liver microsomes; assay type: in vitro ADME; conditions: 1 hour incubation; for cleavage of conjugate, rat versus human microsomes: free salicylate or diflunisal assayed
Description: (§1) In vitro cleavage experiments were performed substantiallas described in Singh et al., 1996, In vitro metabolism of a potent HIV-protease inhibitor (141W94) using rat, monkey and human liver S9, Rapid Commun. Mass Spectrom. 10: 1019-1026. Briefly, conjugate compounds of the invention were incubated at a final concentration of 1 microM for 1 hour in the presence of human or rat liver microsome S9 (obtained from Xenotech). At the end of incubation at each of the time points reported, an equal volume of an organic mixture (acetonitrile/methanol, 50/50, v/v) was added to the incubation mixture followed by centrifugation. At this time blank microsomal extract was spiked with metabolites to create calibration standards for each metabolite at the following concentrations: 0 (blank), 0.05, 0.1, 0.5 and 1 microM. All samples were analyzed by HPLC-MS/MS and the peak areas corresponding to the expected metabolites (generally, antioxidant and anti-inflammatory cleaysasge products) were determined by HPLC-MS/MS. The amount of each metabolite present in the 60 minute incubation samples was determined from the corresponding calibration curve.
The capacity for conjugates of the invention to be cleaved was tested in vitro using rat or human liver microsomes. […] Similar experiments were performed in plasma from rat or human for salicylate-NAC or diflunisal-NAC conjugates; thèse results are shown in FIGS. 3 and 4, respectively.

db/db mice [3] = experiment: Intraperitoneal glucose tolerance test in db/db mice; assay type: in vivo; conditions: salicylate-NAC 1.5, diflunisal-NAC 0.5 mmol/kg/day as lysine salt; glucose 0.5 g/kg ip, 120 minute timecourse
Description: At the fourth week of treatment, a Glucose Tolerance Test was done to the mice after an overnight fasting. The animals received an ip injection of Glucose 0.5 g/kg (Glucosmon 50®). The glycemia levels were determined in blood at the indicated time from the Tail Vein after the Glucose injection using a rapid glucose analyzer.

[4] = tested on: alloxan-treated cd-1 mice; experiment: In vivo beta cell protection model (alloxan); conditions: for plasma insulin levels: lysine salt, alloxan-treated (FIG. 6)
Description: Beta-cell destruction was induced in cd-1 mice after 3 hours of fasting by a single intraperitoneal injection of a freshly prepared solution of alloxan 200 mg/kg (Sigma-Aldrich, San Luis, Mo.) that was dissolved in NaCl 0.9%. Single intraperitoneal drug administration was 1 hour before the alloxan administration. Animals received the different drugs dissolved in PBS pH 7.4, and the animals that not received any drug were injected with the vehicle, in this case PBS pH 7.4. At the end of the treatment, at day 4, animals were killed and the plasma collected and kept at −20° C. until used.
(§2) The circulating glucose concentration was determined by a rapid glucose analyzer (Accu-Chek Aviva; Roche). Plasma triglycerides and non esterified fatty acids were determined with standard colorimetric methods (Biosystems, Barcelona, Spain, and Wako Chemicals, Neuss, Germany, respectively). Plasma insulin concentration was determined by enzyme-linked immunosorbent assay method (CrystalChem, Downers Grove, Ill.). Total pancreas insulin content has been determined after extraction of insulin with a mixture Ethanol (70%)/HCl (0.15 N) from pancreas homogenates.

db/db mice [5] = experiment: Chronic treatment in db/db mice; assay type: in vivo
[6] = Cleavage by human liver microsomes; assay type: in vitro ADME; conditions: 1 hour incubation; diflunisal-NAC compared with salicylate-NAC
Description: as §1
The capacity for conjugates of the invention to be cleaved was tested in vitro using rat or human liver microsomes. […]

db/db mice [7] = experiment: Pancreas insulin content and immunohistochemical analysis of pancreas sections in db/db mice; assay type: in vivo; conditions: chronic oral, four weeks, 0.5 mmol/kg/day (FIG. 24)
Description: as §2
The pancreas was removed from each mouse and fixed overnight in a solution of 4% formalin. Fixed tissues were processed routinely for paraffin embedding, and 6-μm sections were prepared and mounted on slides treated with xilane. For detection of insulin, the avidin-biotin complex (ABC) method was performed using Vectastain ABC Kit (Vector Laboratories). Deparaffinized and […] sections were microwaved in citrate buffer (pH 6.0) for antigen retrieval, then were incubated in Tris 100 mM pH 7.4 containing 3% BSA, and 0.01% Triton, to permeabilize and block nonspecific staining, for 30 min, and after that, were incubated with the guinea pig polyclonal anti-insulin antibody (Dako), diluted 1/500 in blocking solution for 2 hours. Negative controls were incubated with blocking solution without the primary antibody. […]

[8] = Diflunisal and NAC blood levels after oral administration of conjugate versus separate components; assay type: in vivo, rats; conditions: 7-hour timecourse (FIG. 16)
Description: A comparison of diflunisal and NAC levels in blood after oral administration was performed in rats by administration of the diflunisal-NAC conjugate (GMC-252) or the individual components separately (i.e., not chemically conjugated). Conjugate (20 mg/kg) or the equivalent amount of difliunisal and NAC were administered and blood assayed over a 7-hour timecourse.

control animals = experiment: Preliminary experiment with control animals (oral diflunisal-NAC); assay type: in vivo; conditions: oral 0.5 mmol/kg
human diabetic patients = conditions: 4.5 g/day; cited from earlier work
[9] = 0.75 mmol/kg/day as lysine salt, ip, compared with separate administration of salicylate or NAC (FIG. 7)

With `CC(=O)NC(CSC(=O)C(C)c1ccc(CC(C)C)cc1)C(=O)O` (stereo not drawn) [Dexibuprofen-NAC] the “stability of free acid in water/methanol mixture” value ([1]; free acid, water/methanol, 3 and 24 hours (diflunisal-NAC: neutral pH, room temperature)) was “stable for 3- and 24-hour incubation” and the “stability of lysine salt at neutral pH” value ([1]; lysine salt, neutral pH, room temperature or 4° C.) was “stable as lysine salts”.
For `CC(=O)N[C@@H](CSC(=O)c1ccccc1O)C(=O)O` [Example 1, (R)-2-acetamido-3-(2-hydroxybenzoylthio)propanoic acid], the “cleavage of conjugate, rat versus human microsomes” value [2] was “Rat microsomes were found to be more potent in cleaving”, the “stability under acidic conditions, lysine salt” value ([1]; 3 h) was “stable after 3 hours” and the “stability, free acid in the absence of lysine” value ([1]; 3 days) was “lost stability during a 3-day timecourse”. The “detectable conjugate under basic conditions” value ([1]; basic pH (9), PBS, room temperature, 3 hour incubation, free acid and lysine salt tested) was “only the lysine salt showed any (sparing) détectable conjugate”, the “plasma glucose in glucose tolerance test” value (db/db mice [3]) was “reductions in plasma glucose” and the glycemia ([4]; 0.38 mmol/kg or equivalent amount of combination, 4-day timecourse, male cd-1 mice (FIG. 17)) was “statistically-significant reduction”. For the same compound, the “pancreatic beta-cell function (as assessed by plasma insulin levels)” value ([4]; alloxan-treated mice (FIG. 17)) was “statistically-significant potection of pancreatic beta-cell function”, the plasma insulin levels ([4]; i.p., listed as GMC-3a) was “preservation of insulin levels” and the plasma insulin levels ([4]; i.p., listed as salicylate-NAC) was “an increase in plasma insulin levels”. For the same compound, the “effect of alloxan on β-cells” value ([4]; lysine salts (FIG. 6)) was “reduce the effect of alloxan on β-cells”, the glycemia ([4]; lysine salts, i.p., 4-day timecourse (FIG. 6)) was “statistically-significant reductions in glycemia” and the “free fatty acid levels” value (db/db mice [5]; 0.38 mmol/kg/day or equivalent amount of combination (FIG. 18)) was “lowered significantly only by the conjugate”. For the same compound, the “free fatty acid levels” value (db/db mice [5]; [9]) was “significantly improved”, the plasma triglyceride levels (db/db mice [5]; [9]) was “significantly improved” and the “free fatty acid levels” value (db/db mice [5]; 0.75 mmol/kg/day or equivalent amount of combination (FIG. 18)) was “statistically-significant reductions”. For the same compound, the triglycerides (db/db mice [5]; chronic oral, diflunisal-NAC 0.5, salicylate-NAC 1.5 mmol/kg/day as lysine salt (FIG. 11)) was “significant réductions in triglycerides”.
In the case of `CC(=O)N[C@@H](CSC(=O)c1cc(-c2ccc(F)cc2F)ccc1O)C(=O)O` [Example 13], the “percentage of anti-inflammatory component released by human liver microsomes” value [6] is reported as “a higher percentage of diflunisal that salicyalte was released”, the “cleavage of conjugate, rat versus human microsomes” value [2] is reported as “Rat microsomes were found to be more potent in cleaving” and the “percentage of anti-inflammatory component released by rat liver microsomes” value ([2]; diflunisal-NAC compared with salicylate-NAC) is reported as “a higher percentage of diflunisal that salicyalte was released”. The “stability of lysine salt in PBS, 3 hours” value [1] was “stable”, the “stability of lysine salt in water/methanol mixture” value [1] was “did not show comparable stability” and the “stability of lysine salt in PBS, 24 hours” value ([1]; 24 h, pH 7) was “not after 24 hours”. For the same compound, the “stability of free acid in water/methanol mixture” value ([1]; pH 7) was “stable over 3 and 24 hours”, the pancreatic weight (db/db mice [7]) was “without affecting pancreatic weight” and the “plasma concentration profile of diflunisal and NAC” value ([8]; oral 20 mg/kg conjugate versus equivalent diflunisal and NAC given separately) was “a more gradual increase in plasma concentrations”. The “final plasma concentrations of diflunisal and NAC” value ([8]; oral 20 mg/kg conjugate versus separate components) was “the final concentrations were the same”, the “body weight and epididimal adipose tissue weight” value (control animals) was “did not affect these two parameters” and the “body weight of treated db/db mice” value (db/db mice [5]; oral 0.5 mmol/kg (FIG. 20)) was “did not affect the weight”. The “epididimal adipose tissue weight” value (db/db mice [5]; oral 0.5 mmol/kg, treated group (vehicle 1.7±0.09)) was 1.8 ± 0.07 g and the “macroscopic lesions of the gastro intestinal system” value (db/db mice [5]; oral treatment of db/db mice) was “did not induce any macroscopic lesions”.
In the case of `O=C(Oc1ccccc1C(=O)O)c1ccccc1O` [salsalate], the “enhancement of side effects such as tinnitus” value (human diabetic patients) is listed as 66%.
